Test results published in patent US20250154144A1 (CHILDREN'S HOSPITAL MEDICAL CENTER, priority 2021, published 2025).
Like-named read-outs stand apart in the source and are kept apart here.

What was measured:
[1] = system: THP1 cells; assay: Combination drug screening, Cell Titer Glo, 10 × 10 matrix, THP1 cells; type: cell-based
[2] = system: MOLM14(D835Y) cells; type: cell-based
[3] = with (+)-BAY-1251152, single compound range 0-10,000 nM or 0-20,000 nM
[4] = with AMG-232, single compound range 0-10,000 nM or 0-20,000 nM
[5] = with AZD-5363, single compound range 0-10,000 nM or 0-20,000 nM
[6] = with Eprenetapopt/APR-246, single compound range 0-10,000 nM or 0-20,000 nM
[7] = with Ivosidenib, single compound range 0-10,000 nM or 0-20,000 nM
[8] = with Lenalidomide, single compound range 0-10,000 nM or 0-20,000 nM
[9] = with Palbociclib, single compound range 0-10,000 nM or 0-20,000 nM
[10] = with Prednisolone, single compound range 0-10,000 nM or 0-20,000 nM
[11] = with SNDX-5613, single compound range 0-10,000 nM or 0-20,000 nM
[12] = with TNO-155, single compound range 0-10,000 nM or 0-20,000 nM
[13] = with Trametinib, single compound range 0-10,000 nM or 0-20,000 nM
[14] = with Ulixertinib, single compound range 0-10,000 nM or 0-20,000 nM
[15] = with Venetoclax (ABT-199), single compound range 0-10,000 nM or 0-20,000 nM
[16] = MOLM14(D835Y) cells, 10 × 10, combination with (+)-BAY-1251152
[17] = MOLM14(D835Y) cells, 10 × 10, combination with AMG-232
[18] = MOLM14(D835Y) cells, 10 × 10, combination with AZD-5363
[19] = MOLM14(D835Y) cells, 10 × 10, combination with Eprenetapopt/APR-246
[20] = MOLM14(D835Y) cells, 10 × 10, combination with Ivosidenib
[21] = MOLM14(D835Y) cells, 10 × 10, combination with Lenalidomide
[22] = MOLM14(D835Y) cells, 10 × 10, combination with Palbociclib
[23] = MOLM14(D835Y) cells, 10 × 10, combination with Prednisolone
[24] = MOLM14(D835Y) cells, 10 × 10, combination with SNDX-5613
[25] = MOLM14(D835Y) cells, 10 × 10, combination with TNO-155
[26] = MOLM14(D835Y) cells, 10 × 10, combination with Trametinib
[27] = MOLM14(D835Y) cells, 10 × 10, combination with Ulixertinib
[28] = MOLM14(D835Y) cells, 10 × 10, combination with Venetoclax (ABT-199)
[29] = MOLM14(D835Y) cells, combination with Venetoclax (ABT-199)
[30] = starting conc. 100 nM, with (+)-BAY-1251152 starting conc. 1000 nM
[31] = starting conc. 100 nM, with Azacitidine (5-Azacytidine) starting conc. 20000 nM
[32] = starting conc. 100 nM, with Palbociclib starting conc. 10000 nM
[33] = starting conc. 100 nM, with Prednisolone starting conc. 10000 nM
[34] = starting conc. 100 nM, with TNO-155 starting conc. 10000 nM
[35] = starting conc. 100 nM, with Venetoclax (ABT-199) starting conc. 2000 nM
[36] = starting conc. 100 nM, with Venetoclax (ABT-199) starting conc. 20000 nM
[37] = starting conc. 20000 nM, with (+)-BAY-1251152 starting conc. 1000 nM
[38] = starting conc. 20000 nM, with Azacitidine (5-Azacytidine) starting conc. 20000 nM
[39] = starting conc. 20000 nM, with Palbociclib starting conc. 10000 nM
[40] = starting conc. 20000 nM, with Prednisolone starting conc. 10000 nM
[41] = starting conc. 20000 nM, with TNO-155 starting conc. 10000 nM
[42] = starting conc. 20000 nM, with Venetoclax (ABT-199) starting conc. 2000 nM
[43] = starting conc. 20000 nM, with Venetoclax (ABT-199) starting conc. 20000 nM

## COc1cc2ncc(-c3ccnc(N[C@@H]4CCCNC4)n3)n2cc1C(C)(C)O [Compound 44, (R)-2-(7-methoxy-3-(2-(piperidin-3-ylamino)pyrimidin-4-yl)imidazo[1,2-a]pyridin-6-yl)propan-2-ol]
[1]; [3]
  Comments: Synergistic
  Excess HSA Score: −516.5
[1]; [4]
  Comments: Antagonistic
  Excess HSA Score: 733.5
[1]; [5]
  Comments: Antagonistic
  Excess HSA Score: 35.78
[1]; [6]
  Comments: Antagonistic
  Excess HSA Score: 460.1
[1]; [7]
  Comments: Synergistic
  Excess HSA Score: −47.26
[1]; [8]
  Comments: Antagonistic
  Excess HSA Score: 877.5
[1]; [9]
  Comments: Synergistic
  Excess HSA Score: −764
[1]; [10]
  Comments: Antagonistic
  Excess HSA Score: 68.4575
[1]; [11]
  Comments: Antagonistic
  Excess HSA Score: 337.7
[1]; [12]
  Comments: Synergistic
  Excess HSA Score: −62.85
[1]; [13]
  Comments: Synergistic
  Excess HSA Score: −453.2
[1]; [14]
  Comments: Synergistic
  Excess HSA Score: −572.2
[1]; [15]
  Comments: Synergistic
  Excess HSA Score: −1159
[2]; [16]
  Excess HSA Score: −808.4
[2]; [17]
  Excess HSA Score: −620.9
[2]; [18]
  Excess HSA Score: −290.5
[2]; [19]
  Excess HSA Score: 75.21
[2]; [20]
  Excess HSA Score: 21.01
[2]; [21]
  Excess HSA Score: 270.3924
[2]; [22]
  Excess HSA Score: −370.2
[2]; [23]
  Excess HSA Score: 409.4
[2]; [24]
  Excess HSA Score: 3.1084
[2]; [25]
  Excess HSA Score: −655.3
[2]; [26]
  Excess HSA Score: −420
[2]; [27]
  Excess HSA Score: −254.1
[2]; [28]
  Excess HSA Score: −1120.4885
[2]; MOLM14(D835Y) cells, combination with SNDX-5613
  Comments: Antagonistic
[2]; [29]
  Comments: Synergistic

## COc1cc2ncc(-c3ccnc(N[C@@H]4CCCNC4)n3)n2nc1C1CC1 [Compound 50, (R)-4-(6-cyclopropyl-7-methoxyimidazo[1,2-b]pyridazin-3-yl)-N-(piperidin-3-yl)pyrimidin-2-amine]
[1]; THP1 cells, 10 × 10, combination with (+)-BAY-1251152
  Excess HSA Score: −396.5
[1]; THP1 cells, 10 × 10, combination with AMG-232
  Excess HSA Score: 252
[1]; THP1 cells, 10 × 10, combination with AZD-5363
  Excess HSA Score: −475
[1]; THP1 cells, 10 × 10, combination with Eprenetapopt/APR-246
  Excess HSA Score: −218.2
[1]; THP1 cells, 10 × 10, combination with Ivosidenib
  Excess HSA Score: −149.8
[1]; THP1 cells, 10 × 10, combination with Lenalidomide
  Excess HSA Score: 333.7
[1]; THP1 cells, 10 × 10, combination with Palbociclib
  Excess HSA Score: −273.2
[1]; THP1 cells, 10 × 10, combination with Prednisolone
  Excess HSA Score: −429.3
[1]; THP1 cells, 10 × 10, combination with SNDX-5613
  Excess HSA Score: −9.013
[1]; THP1 cells, 10 × 10, combination with TNO-155
  Excess HSA Score: 306.2
[1]; THP1 cells, 10 × 10, combination with Trametinib
  Excess HSA Score: −475.4
[1]; THP1 cells, 10 × 10, combination with Ulixertinib
  Excess HSA Score: −358.5769
[1]; THP1 cells, 10 × 10, combination with Venetoclax (ABT-199)
  Excess HSA Score: −2869
[1]; THP1 cells, combination with AMG-232
  Comments: Antagonistic
[1]; THP1 cells, combination with Venetoclax (ABT-199)
  Comments: Synergistic
[1]; [30]
  Comments: Synergistic at both
  Excess HSA Score: −408.4
[1]; [31]
  Comments: Synergistic at both
  Excess HSA Score: −164.8
[1]; [32]
  Comments: Antagonistic over
  Excess HSA Score: 19.42
[1]; [33]
  Comments: Antagonistic at both
  Excess HSA Score: 76.0598
[1]; [34]
  Excess HSA Score: 0.06789
[1]; [35]
  Comments: Synergistic; Optimal
  Excess HSA Score: −911.4
[1]; [36]
  Comments: Synergistic; Optimal
  Excess HSA Score: −1400
[1]; [37]
  Comments: Synergistic at both
  Excess HSA Score: −293.4
[1]; [38]
  Comments: Synergistic at both
  Excess HSA Score: −347.5
[1]; [39]
  Excess HSA Score: −482.7
[1]; [40]
  Comments: Antagonistic at both
  Excess HSA Score: 541.6925
[1]; [41]
  Comments: Antagonistic
  Excess HSA Score: 230.5
[1]; [42]
  Comments: Synergistic; Optimal
  Excess HSA Score: −27.96
[1]; [43]
  Comments: Synergistic; Optimal
  Excess HSA Score: −1808
[2]; [16]
  Excess HSA Score: −552.5
[2]; [17]
  Excess HSA Score: −129.9
[2]; [18]
  Excess HSA Score: 12.5
[2]; [19]
  Excess HSA Score: −99.03
[2]; [20]
  Excess HSA Score: 219
[2]; [21]
  Excess HSA Score: 555
[2]; [22]
  Excess HSA Score: −528.5
[2]; [23]
  Excess HSA Score: 196.6
[2]; [24]
  Excess HSA Score: −229.3
[2]; [25]
  Excess HSA Score: −1021
[2]; [26]
  Excess HSA Score: −342.3
[2]; [27]
  Excess HSA Score: 149.4
[2]; [28]
  Excess HSA Score: −1391
[2]; MOLM14(D835Y) cells, combination with AZD-5363
  Comments: Antagonistic
[2]; [29]
  Comments: Synergistic
[2]; [30]
  Comments: Synergistic
  Excess HSA Score: −317.9
[2]; [31]
  Excess HSA Score: −579.8
[2]; [32]
  Excess HSA Score: −1019
[2]; [33]
  Excess HSA Score: 9.258
[2]; [34]
  Comments: Synergistic
  Excess HSA Score: −1043.6684
[2]; [35]
  Comments: Synergistic;
  Excess HSA Score: −1372
[2]; [36]
  Comments: Synergistic;
  Excess HSA Score: −83.83
[2]; [37]
  Comments: Antagonistic
  Excess HSA Score: 67.99
[2]; [38]
  Excess HSA Score: −56.9
[2]; [39]
  Excess HSA Score: −31.37
[2]; [40]
  Excess HSA Score: 121.2
[2]; [41]
  Comments: Additive
  Excess HSA Score: −2.487
[2]; [42]
  Comments: Synergistic;
  Excess HSA Score: −1026
[2]; [43]
  Comments: Synergistic;
  Excess HSA Score: −74.01
